# Reference: paper PMC9516332 (Frontiers in Oncology, 2022)
# Read-outs that look alike come from different tables or passages of the source.
# What was measured:
# [1] = tested on: 134 cancer cell lines
# [2] = molecular target: T1, panel of 255 wild-type kinases (Homo sapiens, UniProt O15264); conditions: p38δ; 1 µmol/L single concentration; ref DOI: 10.1158/1535-7163.MCT-18-0877; cited from earlier work
# T1 sequence (O15264 1-365): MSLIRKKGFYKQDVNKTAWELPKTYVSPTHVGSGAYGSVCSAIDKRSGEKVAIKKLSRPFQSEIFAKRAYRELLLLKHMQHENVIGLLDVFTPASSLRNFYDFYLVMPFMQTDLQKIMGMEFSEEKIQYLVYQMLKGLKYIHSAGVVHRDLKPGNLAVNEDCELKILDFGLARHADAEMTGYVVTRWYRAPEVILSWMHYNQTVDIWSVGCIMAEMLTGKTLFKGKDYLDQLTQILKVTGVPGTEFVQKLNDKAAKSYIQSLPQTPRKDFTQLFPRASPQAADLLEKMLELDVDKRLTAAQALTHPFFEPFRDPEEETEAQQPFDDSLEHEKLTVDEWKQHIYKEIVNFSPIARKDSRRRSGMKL
# [3] = molecular target: panel of 255 wild-type kinases (Homo sapiens, UniProt Q15119); conditions: kinase PDHK2; 1 µmol/L single concentration; ref DOI: 10.1158/1535-7163.MCT-18-0877; cited from earlier work
# [4] = molecular target: panel of 255 wild-type kinases (Homo sapiens, UniProt Q9P286); conditions: PAK5; 1 µmol/L single concentration; ref DOI: 10.1158/1535-7163.MCT-18-0877; cited from earlier work
# [5] = molecular target: panel of 255 wild-type kinases (Homo sapiens, UniProt Q9UBS0); conditions: p70S6Kβ; 1 µmol/L single concentration; ref DOI: 10.1158/1535-7163.MCT-18-0877; cited from earlier work
# [6] = tested on: AP-1060 (ETV6-NTRK3); assay: Cell viability assay; conditions: read-out: IC50 in cell proliferation assay
# [7] = tested on: 134 cancer cell lines; assay: Cell viability assay (ATPlite, 72 hours), IC50 on cancer cell line panel
compound,measurement,setting,value
O=C(c1ccc(F)c(F)c1Nc1ccc(I)cc1F)N1CC(O)([C@@H]2CCCCN2)C1 [cobimetinib],IC50,[1],56 nM
same,"%-inhibition, p38δ",[2],-6%
same,"%-inhibition at 1 µmol/L, PDHK2",[3],-0.379%
same,"%-inhibition, PAK5",[4],0.678%
same,"%-inhibition, p70S6Kβ",[5],5.59%
same,IC50,[6],7330 nM
same,IC50,"[7]; HEC-6, read-out: IC50 in cell proliferation assay, HEC-6 cell line (EGFR p.A289V)",164 nM
same,IC50,"[7]; Homo sapiens, 769-P, read-out: IC50 in cell proliferation assay, cell line 769-P",423 nM
same,IC50,"[7]; Homo sapiens, 786-0, read-out: IC50 in cell proliferation assay, cell line 786-O",205 nM
same,IC50,"[7]; Homo sapiens, A 172, read-out: IC50 in cell proliferation assay, cell line A-172",218 nM
same,IC50,"[7]; Homo sapiens, A204, read-out: IC50 in cell proliferation assay, cell line A-204",900 nM
same,IC50,"[7]; Homo sapiens, A498, read-out: IC50 in cell proliferation assay, cell line A-498",3910 nM
same,IC50,"[7]; Homo sapiens, A549, read-out: IC50 in cell proliferation assay, cell line A-549",255 nM
same,IC50,"[7]; Homo sapiens, A704, read-out: IC50 in cell proliferation assay, cell line A-704",> 10000 nM
same,IC50,"[7]; Homo sapiens, A-375, read-out: IC50 in cell proliferation assay, cell line A-375 (BRAF p.V600E)",13 nM
same,IC50,"[7]; Homo sapiens, A-427, read-out: IC50 in cell proliferation assay, cell line A-427",72 nM
same,IC50,"[7]; Homo sapiens, ACHN, read-out: IC50 in cell proliferation assay, cell line ACHN",104 nM
same,IC50,"[7]; Homo sapiens, AN3-CA, read-out: IC50 in cell proliferation assay, cell line AN3-CA (FGFR2 p.N549K)",558 nM
same,IC50,"[7]; Homo sapiens, ASPC1, read-out: IC50 in cell proliferation assay, cell line AsPC-1",61 nM
same,IC50,"[7]; Homo sapiens, AU565, read-out: IC50 in cell proliferation assay, cell line AU565 (ERBB2 amplification)",> 10000 nM
same,IC50,"[7]; Homo sapiens, BT-20, read-out: IC50 in cell proliferation assay, cell line BT-20",> 10000 nM
same,IC50,"[7]; Homo sapiens, BT-474, read-out: IC50 in cell proliferation assay, cell line BT-474 (ERBB2 amplification)",5990 nM
same,IC50,"[7]; Homo sapiens, BT-549, read-out: IC50 in cell proliferation assay, cell line BT-549",5720 nM
same,IC50,"[7]; Homo sapiens, BXPC-3, read-out: IC50 in cell proliferation assay, cell line BxPC-3",10 nM
same,IC50,"[7]; Homo sapiens, C-33-A, read-out: IC50 in cell proliferation assay, cell line C-33 A",43 nM
same,IC50,"[7]; Homo sapiens, CAL-27, read-out: IC50 in cell proliferation assay, cell line CAL-27",63 nM
same,IC50,"[7]; Homo sapiens, CCF-STTG1, read-out: IC50 in cell proliferation assay, cell line CCF-STTG1",> 10000 nM
same,IC50,"[7]; Homo sapiens, CCRF-CEM, read-out: IC50 in cell proliferation assay, cell line CCRF-CEM",8480 nM
same,IC50,"[7]; Homo sapiens, COLO 205, read-out: IC50 in cell proliferation assay, cell line COLO 205 (BRAF p.V600E)",10 nM
same,IC50,"[7]; Homo sapiens, COLO-829, read-out: IC50 in cell proliferation assay, cell line COLO 829 (BRAF p.V600E)",28 nM
same,IC50,"[7]; Homo sapiens, DLD-1, read-out: IC50 in cell proliferation assay, cell line DLD-1",724 nM
same,IC50,"[7]; Homo sapiens, DU-4475, read-out: IC50 in cell proliferation assay, cell line DU4475 (BRAF p.V600E)",17 nM
same,IC50,"[7]; Homo sapiens, Daoy, read-out: IC50 in cell proliferation assay, cell line Daoy",> 10000 nM
same,IC50,"[7]; Homo sapiens, DoTc2-4510, read-out: IC50 in cell proliferation assay, cell line DoTc2 4510",42 nM
same,IC50,"[7]; Homo sapiens, EOL1, read-out: IC50 in cell proliferation assay, cell line EoL-1 (FIP1L1-PDGFRA)",87 nM
same,IC50,"[7]; Homo sapiens, FaDu, read-out: IC50 in cell proliferation assay, cell line FaDu",146 nM
same,IC50,"[7]; Homo sapiens, G-361, read-out: IC50 in cell proliferation assay, cell line G-361 (BRAF p.V600E)",11 nM
same,IC50,"[7]; Homo sapiens, HCC827, read-out: IC50 in cell proliferation assay, cell line HCC827 (EGFR exon19del)",321 nM
same,IC50,"[7]; Homo sapiens, HCC4006, read-out: IC50 in cell proliferation assay, cell line HCC4006 (EGFR exon19del)",1280 nM
same,IC50,"[7]; Homo sapiens, HCT-15, read-out: IC50 in cell proliferation assay, cell line HCT 15",3580 nM
same,IC50,"[7]; Homo sapiens, HCT-116, read-out: IC50 in cell proliferation assay, cell line HCT 116",106 nM
same,IC50,"[7]; Homo sapiens, HEC-1, read-out: IC50 in cell proliferation assay, HEC-1 cell line",368 nM
same,IC50,"[7]; Homo sapiens, HEC-1B, read-out: IC50 in cell proliferation assay, HEC-1-B cell line (EGFR p.A864V)",13 nM
same,IC50,"[7]; Homo sapiens, HL-60, read-out: IC50 in cell proliferation assay, HL-60 cell line",19 nM
same,IC50,"[7]; Homo sapiens, HT, read-out: IC50 in cell proliferation assay, HT cell line",> 10000 nM
same,IC50,"[7]; Homo sapiens, HT-1080, read-out: IC50 in cell proliferation assay, HT-1080 cell line",68 nM
same,IC50,"[7]; Homo sapiens, Hs746T, read-out: IC50 in cell proliferation assay, Hs 746.T cell line (MET exon14skip + amplification)",530 nM
same,IC50,"[7]; Homo sapiens, Hs-578T, read-out: IC50 in cell proliferation assay, Hs 578T cell line",2220 nM
same,IC50,"[7]; Homo sapiens, HuTu80, read-out: IC50 in cell proliferation assay, HuTu 80 cell line",319 nM
same,IC50,"[7]; Homo sapiens, J82, read-out: IC50 in cell proliferation assay, J82 cell line",85 nM
same,IC50,"[7]; Homo sapiens, Jurkat E6.1, read-out: IC50 in cell proliferation assay, Jurkat E6.1 cell line",> 10000 nM
same,IC50,"[7]; Homo sapiens, K562, read-out: IC50 in cell proliferation assay, K-562 cell line",73 nM
same,IC50,"[7]; Homo sapiens, KATO III, read-out: IC50 in cell proliferation assay, KATO III cell line (FGFR2 amplification)",291 nM
same,IC50,"[7]; Homo sapiens, KG-1, read-out: IC50 in cell proliferation assay, KG-1 cell line (FGFR1OP2-FGFR1)",26 nM
same,IC50,"[7]; Homo sapiens, KLE, read-out: IC50 in cell proliferation assay, KLE cell line",> 10000 nM
same,IC50,"[7]; Homo sapiens, KMS-11, read-out: IC50 in cell proliferation assay, KMS-11 cell line (FGFR3 p.Y373C)",4120 nM
same,IC50,"[7]; Homo sapiens, KU812, read-out: IC50 in cell proliferation assay, Ku812 cell line",64 nM
same,IC50,"[7]; Homo sapiens, Kasumi 1, read-out: IC50 in cell proliferation assay, Kasumi-1 cell line (KIT p.N822K)",62 nM
same,IC50,"[7]; Homo sapiens, LC-2-ad, read-out: IC50 in cell proliferation assay, LC-2/ad cell line (CCDC6-RET)",1190 nM
same,IC50,"[7]; Homo sapiens, LNCaP-Clone-FGC, read-out: IC50 in cell proliferation assay, LNCaP clone FGC cell line",9640 nM
same,IC50,"[7]; Homo sapiens, LS174T, read-out: IC50 in cell proliferation assay, LS174T cell line",25 nM
same,IC50,"[7]; Homo sapiens, LS-411N, read-out: IC50 in cell proliferation assay, LS411N cell line (BRAF p.V600E)",21 nM
same,IC50,"[7]; Homo sapiens, LoVo, read-out: IC50 in cell proliferation assay, LoVo cell line",118 nM
same,IC50,"[7]; Homo sapiens, MCF7, read-out: IC50 in cell proliferation assay, MCF-7 cell line",8550 nM
same,IC50,"[7]; Homo sapiens, MDA-MB-231, read-out: IC50 in cell proliferation assay, MDA-MB-231 cell line",192 nM
same,IC50,"[7]; Homo sapiens, MDA-MB-453, read-out: IC50 in cell proliferation assay, MDA-MB-453 cell line",501 nM
same,IC50,"[7]; Homo sapiens, MDA-MB-468, read-out: IC50 in cell proliferation assay, MDA-MB-468 cell line",248 nM
same,IC50,"[7]; Homo sapiens, MG-63, read-out: IC50 in cell proliferation assay, MG-63 cell line",421 nM
same,IC50,"[7]; Homo sapiens, MIA PaCa-2, read-out: IC50 in cell proliferation assay, MIA PaCa-2 cell line",68 nM
